# In US20050182252A1, “Novel 2'-C-methyl nucleoside derivatives” (priority 2004, published 2005):
# Where a name gives a salt, the structure may show the parent alone.
row,melting point [°C],Structure (SMILES)
1,137 to 140,"C[C@@]1(O)[C@H](O)[C@@H](COP2(=O)OCC[C@@H](c3cccnc3)O2)O[C@H]1n1cnc2c(N)ncnc21 (stereo partly drawn) [Compound 21.9, cis-5′-O-[4-(pyridine-3-yl)-2-oxo-1,3,2-dioxaphosphorinan-2-yl]-2′-C-beta-methyl-adenosine]"
2,187 to 190,"C[C@@]1(O)[C@H](O)[C@@H](COP2(=O)OCC[C@@H](c3ccccc3Cl)O2)O[C@H]1n1ccc2c(N)ncnc21 (stereo partly drawn) [Compound 16.14, 4-amino-7-(cis-5′-O-[4-(2-chlorophenyl)-2-oxo-1,3,2-dioxaphosphorinan-2-yl]-2′-C-methyl-beta-D-ribofuranosyl)-7H-pyrrolo[2,3-d]pyrimidine]"
3,185 to 188,"C[C@@]1(O)[C@H](O)[C@@H](COP2(=O)OCC[C@@H](c3ccccc3C(F)(F)F)O2)O[C@H]1n1ccc2c(=O)[nH]c(N)nc21 (stereo partly drawn) (as salt: trifluoroacetic acid salt) [Compound 17.9, 2-amino-7-(cis-5-O-[4-(2-trifluoromethylphenyl)-2-oxo-1,3,2-dioxaphosphorinan-2-yl]-2′-C methyl-beta-D-ribofuranosyl)-7H-pyrrolo[2,3-d]pyrimidin-4(3H)-one trifluoroacetic acid salt]"
4,127 to 130,"C[C@@]12OC(=O)O[C@@H]1[C@@H](COP1(=O)OCC[C@H](c3cccc(Cl)c3)O1)O[C@H]2n1ccc2c(N)ncnc21 (stereo partly drawn) [Compound 23.1, 4-amino-7-(2′,3′-carbonyl-cis-5′-O-[4-(S)-(3-chlorophenyl)-2-oxo-4,3,2-dioxaphosphorinan-2-yl]-2′-C-methyl-beta-D-ribofuranosyl)-7H-pyrrolo[2,3-d]pyrimidine]"
5,185 to 189,"C[C@@]1(O)[C@H](O)[C@@H](COP2(=O)OCC[C@H](c3cncc(Br)c3)O2)O[C@H]1n1ccc2c(=O)[nH]c(N)nc21 (stereo partly drawn) (as salt: salt) [Compound 17.26, 2-amino-7-(cis-5′-O-[4-(5-bromo-pyridin-3-yl)-2-oxo-1,3,2-dioxaphosphorinan-2-yl]-2′-C methyl-beta-D-ribofuranosyl)-7H-pyrrolo[2,3-d]pyrimidin-4(3H)-one]"
6,128 to 133,"C[C@@]1(O)[C@H](O)[C@@H](CO[P@]2(=O)OCC[C@H](c3ccccc3)O2)O[C@H]1n1ccc2c(=O)[nH]c(N)nc21 [Compound 17.16, 2-amino-7-(cis-5-O-[4-(R)-phenyl-2-oxo-1,3,2-dioxaphosphorinan-2-yl]-2-C methyl-beta-D-ribofuranosyl)-7H-pyrrolo[2,3-d]pyrimidin-4(3H)-one]"
7,> 220,"C[C@@]1(O)[C@H](O)[C@@H](CO[P@@]2(=O)O[C@H](c3ccccc3)C[C@H](c3ccccc3)O2)O[C@H]1n1ccc2c(N)ncnc21 (as salt: trifluoroacetic acid salt) [Compound 16.18, 4-amino-7-(trans-5′-O-[4,6-cis-diphenyl-2-oxo-1,3,2-dioxaphosphorinan-2-yl]-2′-C-methyl-beta-D-ribofuranosyl)-7H-pyrrolo[2,3-d]pyrimidine trifluoroacetic acid salt]"
8,177 to 180,"C[C@@]1(O)[C@H](O)[C@@H](COP2(=O)OCC[C@H](c3cc(Cl)cc(Cl)c3)O2)O[C@H]1n1ccc2c(=O)[nH]c(N)nc21 (stereo partly drawn) [Compound 17.12, 2-amino-7-(cis-5′-O-[4-(3,5-dichlorophenyl)-2-oxo-1,3,2-dioxaphosphorinan-2-yl]-2′C methyl-beta-D-ribofuranosyl)-7H-pyrrolo[2,3-d]pyrimidin-4(3H)-one]"
9,75 to 78,"C[C@@]1(O)[C@H](O)[C@@H](COP2(=O)OCC[C@@H](c3cc(F)ccc3F)O2)O[C@H]1n1cnc2c(N)ncnc21 (stereo partly drawn) [Compound 21.3, cis-5′-O-[4-(2,5difluorophenyl)-2-oxo-1,3,2-dioxaphosphorinan-2-yl]-2′-C-beta-methyl-adenosine]"
10,155 to 175,C[C@@]1(O)[C@H](O)[C@@H](COP2(=O)OCC[C@H](c3cc(C(F)(F)F)cc(C(F)(F)F)c3)O2)O[C@H]1n1ccc2c(=O)[nH]c(N)nc21 (stereo partly drawn) [Compound 17.23]
11,192 to 195,"C[C@@]12OC(=O)O[C@@H]1[C@@H](COP1(=O)OCC[C@H](c3ccncc3)O1)O[C@H]2n1ccc2c(N)ncnc21 (stereo partly drawn) [Compound 23.2, 4-amino-7-(2′,3′-carbonyl-cis-5′-O-[4-(S)-(pyridin-4-yl)-2-oxo-1,3,2-dioxaphosphorinan-2-yl]-2′-C-methyl-beta-D-ribofuranosyl)-7H-pyrrolo[2,3-d]pyrimidine]"
12,193 to 196,"C[C@@]1(O)[C@H](O)[C@@H](COP2(=O)OCC[C@@H](c3cc(Cl)ccc3Br)O2)O[C@H]1n1ccc2c(N)ncnc21 (stereo partly drawn) [Compound 16.25, 4-amino-7-(cis-5′-O-[4-(2-bromo-5-chlorophenyl)-2-oxo-1,3,2-dioxaphosphorinan-2-yl]-2′-C-methyl-beta-D-ribofuranosyl)-7H-pyrrolo[2,3-d]pyrimidine]"
13,138 to 141,"C[C@@]1(O)[C@H](O)[C@@H](CO[P@@]2(=O)OCC[C@@H](c3ccncc3)O2)O[C@H]1n1ccc2c(=O)[nH]c(N)nc21 [Compound 17.13, 2-amino-7-(cis-5-O-[4-(S)-(pyridin-4-yl)-2-oxo-1,3,2-dioxaphosphorinan-2-yl]-2-C methyl-beta-D-ribofuranosyl)-7H-pyrrolo[2,3-d]pyrimidin-4(3H)-one]"
14,175 to 179,"C[C@@]1(O)[C@H](O)[C@@H](COP2(=O)OCC[C@@H](c3ccc(F)c(Br)c3)O2)O[C@H]1n1ccc2c(=O)[nH]c(N)nc21 (stereo partly drawn) [Compound 17.15, 2-amino-7-(cis-5′-O-[4-(3-bromo-4-fluoro-phenyl)-2-oxo-1,3,2-dioxaphosphorinan-2-yl]-2′-C methyl-beta-D-ribofuranosyl)-7H-pyrrolo[2,3-d]pyrimidin-4(3H)-one]"
15,182 to 185,"C[C@@]1(O)[C@H](O)[C@@H](COP2(=O)OCC[C@H](c3cc(F)cc(F)c3)O2)O[C@H]1n1ccc2c(=O)[nH]c(N)nc21 (stereo partly drawn) (as salt: trifluoroacetic acid salt) [Compound 17.11, 2-amino-7-(cis-5-O-[4-(3,5-difluorophenyl)-2-oxo-1,3,2-dioxaphosphorinan-2-yl]-2-C methyl-beta-D-ribofuranosyl)-7H-pyrrolo[2,3-d]pyrimidin-4(3H)-one trifluoroacetic acid salt]"
16,215 to 220,"C[C@@]1(O)[C@H](O)[C@@H](COP2(=O)OCC[C@H](c3cccc(F)c3F)O2)O[C@H]1n1ccc2c(=O)[nH]c(N)nc21 (stereo partly drawn) (as salt: trifluoroacetic acid salt) [Compound 17.20, 2-amino-7-(cis-5′-O[4-(2,3-difluorophenyl)-2-oxo-1,3,2-dioxaphosphorinan-2-yl]-2′-C methyl-beta-D-ribofuranosyl)-7H-pyrrolo[2,3-d]pyrimidin-4(3H)-one trifluoroacetic acid salt]"
17,177 to 180,C[C@@]1(O)[C@H](O)[C@@H](CO[P@]2(=O)OCC[C@H](c3ccccc3)O2)O[C@H]1n1ccc2c(N)ncnc21 [Compound 16.34]
18,170,"C[C@@]1(O)[C@H](O)[C@@H](COP2(=O)OCC[C@@H](c3cccc(F)c3)O2)O[C@H]1n1ccc2c(=O)[nH]c(N)nc21 (stereo partly drawn) [Compound 17.14, 2-amino-7-(cis-5′-O-[4-(3-fluorophenyl)-2-oxo-1,3,2-dioxaphosphorinan-2-yl]-2-C methyl-beta-D-ribofuranosyl)-7H-pyrrolo[2,3-d]pyrimidin-4(3H)-one]"
19,157 to 160,"C[C@@]1(O)[C@H](O)[C@@H](COP2(=O)OCC[C@H](c3cccc(C#N)c3)O2)O[C@H]1n1ccc2c(N)ncnc21 (stereo partly drawn) [Compound 16.43, 4-amino-7-(cis-5′-O-[4-(3-cyanophenyl)-2-oxo-1,3,2-dioxaphosphorinan-2-yl]-2′-C-methyl-beta-D-ribofuranosyl)-7H-pyrrolo[2,3-d]pyrimidine]"
20,192 to 194,"CC1(C)C[C@H](c2ccccc2)OP(=O)(OC[C@H]2O[C@@H](n3ccc4c(=O)[nH]c(N)nc43)[C@](C)(O)[C@@H]2O)O1 (stereo partly drawn) (as salt: trifluoroacetic acid salt) [Compound 17.18, 2-amino-7-(cis-5′-O-[6,6-dimethyl-4-phenyl-2-oxo-1,3,2-dioxaphosphorinan-2-yl]-2′C methyl-beta-D-ribofuranosyl)-7H-pyrrolo[2,3-d]pyrimidin-4(3H)-one trifluoroacetic acid salt]"
21,116 to 120,CO[C@@H]1COP(=O)(OC[C@H]2O[C@@H](n3ccc4c(N)ncnc43)[C@](C)(O)[C@@H]2O)O[C@@H]1c1cccc(Cl)c1 (stereo partly drawn) (as salt: trifluoroacetic acid salt) [Compound 16.23]
22,170 to 180,"C[C@@]1(O)[C@H](O)[C@@H](CO[P@]2(=O)OCC[C@H](c3cccc(Cl)c3)O2)O[C@H]1n1ccc2c(=O)[nH]c(N)nc21 (as salt: trifluoroacetic acid salt) [Compound 17.10, 2-amino-7-(cis-5′-O-[4-(R)-(3-chlorophenyl)-2-oxo-1,3,2-dioxaphosphorinan-2-yl]-2′-C methyl-beta-D-ribofuranosyl)-7H-pyrrolo[2,3-d]pyrimidin-4(3H)-one trifluoroacetic acid salt]"
23,175,"C[C@@]1(O)[C@H](O)[C@@H](COP2(=O)OCC[C@H](c3ccc(Cl)cc3Cl)O2)O[C@H]1n1ccc2c(=O)[nH]c(N)nc21 (stereo partly drawn) [Compound 17.25, 2-amino-7-(cis-5-O-[4-(2,4-dichlorophenyl)-2-oxo-1,3,2-dioxaphosphorinan-2-yl]-2-C methyl-beta-D-ribofuranosyl)-7H-pyrrolo[2,3-d]pyrimidin-4(3H)-one]"
24,192 to 195,"C[C@@]1(O)[C@H](O)[C@@H](COP2(=O)OCC[C@H](c3ccc(Cl)c(Cl)c3)O2)O[C@H]1n1ccc2c(=O)[nH]c(N)nc21 (stereo partly drawn) (as salt: salt) [Compound 17.22, 2-amino-7-(cis-5′-O-[4-(3,4-dichlorophenyl)-2-oxo-1,3,2-dioxaphosphorinan-2-yl]-2′-C methyl-beta-D-ribofuranosyl)-7H-pyrrolo[2,3-d]pyrimidin-4(3H)-one]"
